Results from US12070505B2, “Targeted peptide-drug conjugates” (priority 2021, dated 2024).
Like-named read-outs stand apart in the source and are kept apart here.

Key:
H9C2 cells = assay: Cytotoxicity, MTS assay, normal heart muscle cells (Example 1)
Protocol: (§1) In Vitro Cytotoxicity Assay of Peptide-Drug Conjugates. The cytotoxicity of the compounds was determined by using human leukemia cell line (CCRF-CEM), human ovarian adenocarcinoma cells (SKOV-3) cells, kidney cell line (LLC-PK1), gastric adenocarcinoma cells (AGS), and heart/myocardium cells (H9C2) to evaluate the toxicity of the generated peptides according to a previously reported procedure (Rahman, A.; et al. Proc. Am. Assoc. Cancer Res. 26:2295-2299, 1985, which is incorporated herein by reference). In brief, CCRF-CEM cells were seeded at 50,000 cells in 0.1 mL per well in 98-well plates. In the case of other cell lines, the cells were seeded at 5,000 cells (0.1 mL per well in 96-well plates). The cells were seeded in medium (RPMI-1640 containing FBS (10%)), 24 h prior to the experiment. The compounds at different concentrations (10-50 μM) were added to each well in triplicate and incubated for 24 and 72 h at 37° C. in a humidified atmosphere of 5% CO2. Dox (5 μM) was used as a positive control, while water and cell culture medium were used as negative controls. The compounds were dissolved in water; water was used as a negative control to normalize the data. After the incubation period, MTS reagent (20 μL) was added to each well. The incubation was continued for 2 h. Cell viability was then determined by determination of the fluorescence intensity at 490 nm using a SpectraMax M2 microplate spectrophotometer.

[1] = as above; details: rat, H9C2 heart/myocardium cells
Protocol: as §1

SK-OV-3 cells = assay: Cytotoxicity, MTS cell viability assay, SK-OV-3 (Example 1)
Protocol: (§2) In Vitro Cytotoxicity Assay of Peptide-Drug Conjugates. […] In brief, CCRF-CEM cells were seeded at 50,000 cells in 0.1 mL per well in 98-well plates. In the case of other cell lines, the cells were seeded at 5,000 cells (0.1 mL per well in 96-well plates). […] Dox (5 μM) was used as a positive control, while water and cell culture medium were used as negative controls. The compounds were dissolved in water; water was used as a negative control to normalize the data. After the incubation period, MTS reagent (20 μL) was added to each well. The incubation was continued for 2 h. Cell viability was then determined by determination of the fluorescence intensity at 490 nm using a SpectraMax M2 microplate spectrophotometer. The percentage of cell viability was then calculated using the following equation: [(OD value of cells treated with the compound)−(OD value of culture medium)]/[(OD value of control cells)−(OD value of culture medium)]×100% (FIGS. 6-9).

CCRF-CEM cells [2] = assay: Cytotoxicity, MTS cell viability assay, CCRF-CEM
Protocol: as §2

CCRF-CEM cells [3] = details: 3 h incubation; cited from earlier work
[4] = tested on: uterine sarcoma cells (MES-SA/MX2)
Protocol: as §2

LLC-PK1 kidney cells = assay: Cytotoxicity, MTS assay, normal kidney cells; details: for Cell Viability (%) after 24 h / Cell Viability (%) after 72 h: normal kidney LLC-PK1
Protocol: as §1

[5] = Cytotoxicity, MTS assay, normal kidney cells; details: pig, LLC-PK1 kidney cells
Protocol: as §1

[6] = tested on: gastric adenocarcinoma cells (AGS); assay: Cytotoxicity, MTS cell viability assay, AGS; details: for reduction of cell survival: 72 h
Protocol: as §2

Structure (SMILES): N=C(N)NCCC[C@@H]1NC(=O)[C@H](CCCCNC(=O)[C@H](Cc2c[nH]c3ccccc23)NC(=O)[C@H](Cc2c[nH]c3ccccc23)NC(=O)[C@H](Cc2c[nH]c3ccccc23)NC(=O)[C@H](Cc2c[nH]c3ccccc23)NC(=O)[C@H](Cc2c[nH]c3ccccc23)NC(=O)[C@H](Cc2c[nH]c3ccccc23)NC(=O)[C@H](Cc2c[nH]c3ccccc23)NC(=O)CCN)NC(=O)[C@H](CCCNC(=N)N)NC(=O)[C@H](CCCNC(=N)N)NC(=O)[C@H](CCCNC(=N)N)NC(=O)[C@H](CCCNC(=N)N)NC1=O [[R5K]W7A]
- Cell Viability (%) after 24 h (H9C2 cells; normal heart H9C2, 10 μM): 101 ± 0%
- viability at 72 h, 10 µM [1]: 105 ± 3%
- Cell Viability (%) after 24 h (SK-OV-3 cells; 5 μM): 79 ± 1%
- Cell Viability (%) after 72 h (SK-OV-3 cells; 5 μM): 102 ± 8%
- Cell Viability (%) after 24 h (SK-OV-3 cells; 10 μM): 76 ± 0%
- Cell Viability (%) after 72 h (SK-OV-3 cells; 10 μM): 101 ± 1%
- Cell Viability (%) after 24 h (SK-OV-3 cells; 25 μM): 70 ± 6%
- Cell Viability (%) after 72 h (SK-OV-3 cells; 25 μM): 81 ± 3%
- reduction of cell viability / cytotoxicity (SK-OV-3 cells; 25 μM, 72 h): 19%
- cytotoxicity of peptide alone (SK-OV-3 cells; 5, 10, and 25 μM, 24 h): 21-30%
- Cell Viability (%) after 24 h (CCRF-CEM cells [2]; 5 μM): 90 ± 1%
- Cell Viability (%) after 72 h (CCRF-CEM cells [2]; 5 μM): 68 ± 4%
- Cell Viability (%) after 24 h (CCRF-CEM cells [2]; 10 μM): 68 ± 4%
- Cell Viability (%) after 72 h (CCRF-CEM cells [2]; 10 μM): 73 ± 6%
- Cell Viability (%) after 24 h (CCRF-CEM cells [2]; 25 μM): 32 ± 0%
- Cell Viability (%) after 72 h (CCRF-CEM cells [2]; 25 μM): 24 ± 9%
- reduction of cell viability (CCRF-CEM cells [2]; 25 μM, 24 h): 68%
- cytotoxicity of peptide alone (CCRF-CEM cells [2]; concentrations other than 25 μM, even after 72 h): 10-22%
- fold improved uptake of F′-GpYEEI (CCRF-CEM cells [3]): approximately 48 fold
- fold improved uptake of emtricitabine (F′-FTC) (CCRF-CEM cells [3]): ~27 fold
- fold improved uptake of stavudine (F′-d4T) (CCRF-CEM cells [3]): ~36 fold
- Cell Viability (%) after 72 h ([4]; 10 μM): 110 ± 4%
- Cell Viability (%) after 72 h ([4]; 25 μM): 19 ± 2%
- reduction of cell viability ([4]; 25 μM, 72 h): ~80%
- cytotoxicity (LLC-PK1 kidney cells; LLC-PK1, 5-50 μM, 72 h): did not generate any significant cytotoxicity
- Cell Viability (%) after 24 h (LLC-PK1 kidney cells; 5 μM): 94 ± 1%
- Cell Viability (%) after 72 h (LLC-PK1 kidney cells; 5 μM): 98 ± 3%
- Cell Viability (%) after 24 h (LLC-PK1 kidney cells; 10 μM): 86 ± 1%
- Cell Viability (%) after 72 h (LLC-PK1 kidney cells; 10 μM): 100 ± 1%
- viability at 24 h, 5 µM [5]: 94 ± 1%
- viability at 24 h, 10 µM [5]: 86 ± 1%
- viability at 24 h, 25 µM [5]: 82 ± 1%
- viability at 24 h, 50 µM [5]: 71 ± 1%
- viability at 72 h, 5 µM [5]: 98 ± 3%
- viability at 72 h, 10 µM [5]: 100 ± 1%
- viability at 72 h, 25 µM [5]: 97 ± 1%
- viability at 72 h, 50 µM [5]: 97 ± 3%
- Cell Viability (%) after 24 h ([6]; 5 μM): 103 ± 3%
- Cell Viability (%) after 72 h ([6]; 5 μM): 108 ± 1%
- Cell Viability (%) after 24 h ([6]; 10 μM): 104 ± 1%
- Cell Viability (%) after 72 h ([6]; 10 μM): 94 ± 2%
- Cell Viability (%) after 24 h ([6]; 25 μM): 105 ± 2%
- Cell Viability (%) after 72 h ([6]; 25 μM): 76 ± 1%
- reduction of cell survival ([6]; 25 μM): 24%
- Cell Viability (%) after 24 h ([6]; 50 μM): 79 ± 1%
- Cell Viability (%) after 72 h ([6]; 50 μM): 21 ± 1%
- reduction of cell survival ([6]; 50 μM): 87%
- cytotoxicity ([6]; 5 and 10 μM, 24 and 72 h): did not generate any significant cytotoxicity

Structure (SMILES): COc1cccc2c1C(=O)c1c(O)c3c(c(O)c1C2=O)C[C@@](O)(C(=O)CO)C[C@@H]3O[C@H]1C[C@H](NC(=N)CCCSSC[C@H](NC(C)=O)C(=O)N[C@@H](Cc2c[nH]c3ccccc23)C(=O)N[C@@H](Cc2c[nH]c3ccccc23)C(=O)N[C@@H](Cc2c[nH]c3ccccc23)C(=O)N[C@@H](Cc2c[nH]c3ccccc23)C(=O)N[C@@H](Cc2c[nH]c3ccccc23)C(=O)N[C@@H](Cc2c[nH]c3ccccc23)C(=O)N[C@@H](Cc2c[nH]c3ccccc23)C(=O)NCCCC[C@@H]2NC(=O)[C@H](CCCNC(=N)N)NC(=O)[C@H](CCCNC(=N)N)NC(=O)[C@H](CCCNC(=N)N)NC(=O)[C@H](CCCNC(=N)N)NC(=O)[C@H](CCCNC(=N)N)NC2=O)[C@H](O)[C@H](C)O1 [[R5K]W7C-S-S-Dox]
- cytotoxicity (H9C2 cells; H9C2, 5-10 and 25 μM, any incubation time): did not show any cytotoxicity
- viability at 24 h, 5 µM [1]: 98 ± 1%
- viability at 24 h, 10 µM [1]: 91 ± 1%
- viability at 24 h, 25 µM [1]: 92 ± 1%
- viability at 72 h, 5 µM [1]: 106 ± 1%
- viability at 72 h, 10 µM [1]: 117 ± 1%
- viability at 72 h, 25 µM [1]: 105 ± 2%
- viability at 96 h, 5 µM [1]: 104 ± 1%
- viability at 96 h, 10 µM [1]: 113 ± 3%
- viability at 96 h, 25 µM [1]: 108 ± 1%
